Assay results published in patent US6380193B1, “Fused tricyclic compounds, methods and compositions for inhibiting PARP activity” (Guilford Pharmaceuticals Inc., priority 1998, dated 2002).

Experiments:
[1] = system: cell viability, glucose metabolism, and DNA synthesis; details: cited from earlier work
[2] = system: human fibroblast cells lines (W138 or BJ cells); experiment: Proliferative capacity and lifespan of cells; type: cell-based
Procedure: At the time of subdivision, the media is aspirated, and the cells rinsed with phosphate buffer saline (PBS) and then trypsinized. The cells are counted with a Coulter counter and plated at a density of 10^5 cells per cm^2 in 6-well tissue culture plates in DMEM/199 medium supplemented with 10% bovine calf serum and varying amounts ([…]: from a 100× stock solution in DMEM/M199 medium) of a PARP inhibitor of Formula I as disclosed herein. This process is repeated every 7 days until the cell appear to stop dividing. The untreated (control) cells reach senescence and stop dividing after about 40 days in culture. […] The cells treated with 1 mM 3-AB will still divide after 60 days in culture.

colitis in rats = details: rat, in vivo; cited from earlier work
C57/BL male mice = experiment: Septic shock assay (LPS plus galactosamine challenge); type: in vivo, mouse; details: 60, 20, 6 and 2 mg/kg daily IP for three days, first dose 30 minutes after challenge
Procedure: Groups of 10 C57/BL male mice weighing 18 to 20 g were administered a test compound, 1-carboxynaphthalene-1-carboxamide at the doses of 60, 20, 6 and 2 mg/kg, daily, by intraperitoneal (IP) injection for three consecutive days. Each animal was first challenged with lipopolysaccharide (LPS, from E. Coli, LD100 of 20 mg/animal IV) plus galactosamine (20 mg/animal IV). The first dose of test compound in a suitable vehicle was given 30 minutes after challenge, and the second and third doses were given 24 hours later on day 2 and day 3 respectively, with only the surviving animals receiving the second or third dose of the test compound. Mortality was recorded every 12 hours after challenge for the three-day testing period. 1-Carboxy-naphthalene-1-carboxamide provided a protection against mortality from septic shock of about 40%.

endotoxic shock = details: in vivo; cited from earlier work
[3] = system: focal cerebral ischemia in male Long-Evans rats; experiment: Focal cerebral ischemia in rats (right distal MCA cauterization with bilateral temporary CCA occlusion), infarct by TTC staining; type: in vivo, rat
Procedure: Focal cerebral ischemia was produced by cauterization of the right distal MCA (middle cerebral artery) with bilateral temporary common carotid artery occlusion in male Long-Evans rats for 90 minutes. All procedures performed on the animals were approved by the University Institutional Animal Care and Use Committee of the University of Pennsylvania. A total of 42 rats (weights: 230-340 g) obtained from Charles River were used in this study. The animals fasted overnight with free access to water prior to the surgical procedure.
Two hours prior to MCA occlusion, varying amounts (control, n=14; 5 mg/kg, n=7; 10 mg/kg, n=7; 20 mg/kg, n=7; and 40 mg/kg, n=7) of the compound, 3,4-dihydro-5-[4-(1-piperidinyl)-butoxy]-1(2H)-isoquinolinone (“DPQ”) were dissolved in dimethyl sulfoxide (DMSO) using a sonicator. A volume of 1.28 ml/kg of the resulting solution was injected intraperitoneally into […].
Focal cerebral ischemia was produced by cauterization of the distal portion of the right MCA with bilateral temporary common carotid artery (CCA) occlusion by the procedure of Chen et al., “A Model of Focal Ischemic Stroke in the Rat: Reproducible Extensive Cortical Infarction”, Stroke 17:738-43 (1986) and/or Liu et al., “Polyethylene Glycol-conjugated Superoxide Dismutase and Catalase Reduce Ischemic Brain Injury”, Am. J. Physiol. 256:H589-93 (1989), both of which are hereby incorporated by reference. […]
Two hours after MCA occlusion, the animals were given the same doses of the PARP inhibitor as in the pre-treatment. […] To avoid artifacts due to edema, the damaged area was calculated by subtracting the area of the normal tissue in the hemisphere ipsilateral to the stroke from the area of the hemisphere contralateral to the stroke, by the method of Swanson et al., “A Semiautomated Method for Measuring Brain Infarct Volume”, J. Cereb. […] The total volume of infarction was calculated by summation of the damaged volume of the brain slices.

SMILES: NC(=O)c1cccc(N)c1 [3-aminobenzamide]
- additional metabolic effects [1]: shown to affect cell viability, glucose metabolism, and DNA synthesis
- lifespan and proliferative capacity of the cells ([2]; 10 uM): little or no effect
- lifespan and proliferative capacity of the cells ([2]; 100 uM): lengthen the lifespan of the cells
- lifespan and proliferative capacity of the cells ([2]; 1 mM): dramatically increases the lifespan and proliferative capacity of the cells
- inflammatory response, morphology and energetic status of the distal colon (colitis in rats): reduced the inflammatory response and restored the morphology and the energetic status of the distal colon

SMILES: NC(=O)C1(C(=O)O)CC=Cc2ccccc21 (centres unmarked) [1-Carboxy-naphthalene-1-carboxamide, 1-carboxynaphthalene-1-carboxamide]
- protection against mortality from septic shock (C57/BL male mice): about 40%

SMILES: NC(=O)c1cccnc1 [nicotinamide]
- delayed, NO-mediated vascular failure (endotoxic shock): protects against delayed, NO-mediated vascular failure in endotoxic shock

SMILES: NC(=O)c1ccccc1 [benzamide]
- additional metabolic effects [1]: shown to affect cell viability, glucose metabolism, and DNA synthesis

SMILES: O=C1NCCc2c(OCCCCN3CCCCC3)cccc21 [DPQ, 3,4-dihydro-5-[4-(1-piperidinyl)-butoxy]-1(2H)-isoquinolinone]
- cross-sectional infarct area curve (FIG. 1) ([3]; 5 mg/kg): approximately halfway between the control and the 10 mg/kg curves
- cross-sectional infarct area curve (FIG. 1) ([3]; 20 mg/kg): approximately halfway between the control and the 10 mg/kg curves
- cross-sectional infarct area curve (FIG. 1) ([3]; 40 mg/kg): close to the control
